Source: publication PMC3574224, “Na^+ Regulation in the Malaria Parasite Plasmodiumfalciparum Involves the Cation ATPase PfATP4 and Is a Target of the Spiroindolone Antimalarials” (Cell Host & Microbe, 2013)

Key:
P. falciparum Dd2 parent = test: Disruption of [Na^+]i regulation, SBFI-loaded trophozoites, Dd2 parent; type: cell-based; settings: Plasmodium falciparum, DD2, read-out: IC50 for disruption of Na^+ regulation by NITD246
Experimental: (§1) The [Na^+]i of saponin-isolated parasites was measured at 37°C using the Na^+-sensitive dye SBFI (Molecular Probes, Invitrogen) in conjunction with a PerkinElmer LS 50B Fluorescence Spectrometer fitted with a Dual Excitation Fast Filter. Saponin-isolated parasites were loaded with SBFI by suspension (at 1.40–1.80 × 10^8 cells/mL) for 20 min at 37°C in bicarbonate-free RPMI1640 supplemented with 20 mM D-glucose, 0.2 mM hypoxanthine, 25 mM HEPES, and 25 mg/L gentamycin sulfate (pH 7.10), to which SBFI-acetoxymethyl ester (5.5 μM) and Pluronic F-127 (0.01% w/v) were added. The dye-loaded cells were washed twice (12,000 × g, 0.5 min) in bicarbonate-free RPMI then incubated for a further 20 min at 37°C to allow for complete de-esterification of the dye before being resuspended at a final cell concentration of 1.5–2.5 × 10^7 cells/mL in standard saline. The dye-loaded cells were excited at 340 nm and 380 nm with fluorescence recorded at 490 nm. Calibration of the relationship between the 340/380 nm fluorescence ratio and [Na^+]i (see Figures S1A–S1C) was carried out as described previously ([Diarra et al., 2001]; [Harootunian et al., 1989]). Several inhibitors used in this study caused inner filter effects ([Gu and Kenny, 2009]; [Srinivas and Mutharasan, 1987]); in these cases calibration curves were generated with the inhibitors present. […]

[1] = target: T1, membrane-associated ATPase activity in P. falciparum infected human erythrocytes (3D7) (Plasmodium falciparum, UniProt A0A143ZZK9); test: Membrane-associated ATPase activity (Pi production), infected erythrocyte membranes; type: biochemical; settings: 50 nM
T1 construct: saponin-isolated parasites were lysed by suspension in ice-cold water; endogenous in cells; host or cells: membrane preparation of saponin-isolated mature trophozoite-stage P. falciparum 3D7 parasites
Experimental: For the preparation of uninfected erythrocyte membranes, packed uninfected erythrocytes were lysed by incubation for 5 min in ice-cold PBS containing 0.1% (w/v) saponin together with 1/500 Protease Inhibitor Cocktail Set III (Calbiochem). The erythrocyte ghosts were pelleted by centrifugation (12,000 × g, 10 min) and washed three times in ice-cold water (12,000 × g, 10 min) immediately prior to their use in the ATPase assay. To prepare membranes from parasitised erythrocytes, saponin-isolated parasites were lysed by suspension in ice-cold water (containing 1/500 Protease Inhibitor Cocktail Set III) then washed three times in ice-cold water (12,000 × g, 10 min) before their immediate use in the ATPase assay. The ATPase activity of membrane preparations from uninfected erythrocytes and saponin-isolated parasites was estimated from the rate of hydrolysis of ATP and measured using the PiColorLock Gold Phosphate (Pi) Detection System (Innova Biosciences). Briefly, membrane preparations from 1–3 × 10^8 cells were suspended in reaction buffer (100 mM of either NaCl or choline chloride, 50 mM Tris-HCl, 20 mM KCl, and 2 mM MgCl2) at 37°C. The ATPase reaction was initiated by the addition of 0.25 mM Na2ATP. Note that it was necessary to use the Na^+ salt of ATP, rather than the K^+ and Mg^2+ salts, as the latter both contain residual Pi that saturated the Pi detection system. […]

[2] = system: P. falciparum trophozoites; test: Recovery of [Na^+]i from an imposed intracellular Na^+ load (K^+ removal and restoration); type: cell-based, Plasmodium falciparum; settings: added with 10 mM KCl
Experimental: The mechanism responsible for the increase in [Na^+]i seen upon removal of extracellular K^+ was not investigated further here. However, the phenomenon does provide a useful means of imposing an intracellular Na^+ load on the parasite and of testing the effect of inhibitors on the net efflux of Na^+ from the Na^+-loaded parasite.
The [Na^+]i of saponin-isolated parasites was measured at 37°C using the Na^+-sensitive dye SBFI (Molecular Probes, Invitrogen) in conjunction with a PerkinElmer LS 50B Fluorescence Spectrometer fitted with a Dual Excitation Fast Filter. Saponin-isolated parasites were loaded with SBFI by suspension (at 1.40–1.80 × 10^8 cells/mL) for 20 min at 37°C in bicarbonate-free RPMI1640 supplemented with 20 mM D-glucose, 0.2 mM hypoxanthine, 25 mM HEPES, and 25 mg/L gentamycin sulfate (pH 7.10), to which SBFI-acetoxymethyl ester (5.5 μM) and Pluronic F-127 (0.01% w/v) were added. The dye-loaded cells were washed twice (12,000 × g, 0.5 min) in bicarbonate-free RPMI then incubated for a further 20 min at 37°C to allow for complete de-esterification of the dye before being resuspended at a final cell concentration of 1.5–2.5 × 10^7 cells/mL in standard saline. The dye-loaded cells were excited at 340 nm and 380 nm with fluorescence recorded at 490 nm. Calibration of the relationship between the 340/380 nm fluorescence ratio and [Na^+]i (see Figures S1A–S1C) was carried out as described previously ([Diarra et al., 2001]; [Harootunian et al., 1989]). Several inhibitors used in this study caused inner filter effects ([Gu and Kenny, 2009]; [Srinivas and Mutharasan, 1987]); in these cases calibration curves were generated with the inhibitors present.
The rate of efflux of Na^+ from the cells, following an imposed intracellular Na^+ load, was estimated by fitting the following function to the [Na^+]i traces: [Na^+]i = Δ[Na^+]i^max × e^-at + [Na^+]i^final, where Δ[Na^+]i^max is the increase in [Na^+]i above the normal resting value (following the imposition of an intracellular Na^+-load), t is the time after the commencement of efflux (on addition of extracellular K^+), a is a fitted constant, and [Na^+]i^final is the final value of [Na^+]i. The initial Na^+ efflux rate (at t = 0) is a × Δ[Na^+]i^max, and the half-time to complete recovery (t1/2) is ln(0.5)/-a.

[3] = system: P. falciparum NITD609-R^Dd2 clone #2 (mutant PfATP4); test: Parasite proliferation, [^3H]hypoxanthine incorporation, NITD609-R^Dd2 clone #2; type: cell-based; settings: Plasmodium falciparum, mean ± SEM (n), read-out: IC50 for inhibition of parasite proliferation by NITD246
Experimental: Parasite growth assays were performed in 96-well plates over 48 hr (commencing at the ring stage) using a standard [^3H]hypoxanthine incorporation assay ([Desjardins et al., 1979]).
Dose-response curves were obtained using the expression y = y^min + y^max/(1 + [C/IC50]^b), where y is the parameter being measured (parasite proliferation, Na^+ influx, or ATPase activity), y^min is the minimum value of y, y^max is the maximum value of y, C is the concentration of the moiety that was varied in the experiment, IC50 is the concentration at which y was reduced to 50% of y^max, and b is a fitted constant.

[4] = system: P. falciparum Dd2^attB CAM I398F/P990R (mutant PfATP4 transfectant); test: Disruption of [Na^+]i regulation, SBFI-loaded trophozoites, Dd2^attB CAM I398F/P990R; type: cell-based; settings: Plasmodium falciparum, from fitted curves, read-out: IC50 for disruption of Na^+ regulation by NITD246
Experimental: as §1

[5] = system: P. falciparum Dd2^attB parent; test: Disruption of [Na^+]i regulation, SBFI-loaded trophozoites, Dd2^attB parent; type: cell-based; settings: Plasmodium falciparum, from fitted curves, read-out: IC50 for disruption of Na^+ regulation by NITD246
Experimental: as §1

T1 sequence (A0A143ZZK9 whole entry): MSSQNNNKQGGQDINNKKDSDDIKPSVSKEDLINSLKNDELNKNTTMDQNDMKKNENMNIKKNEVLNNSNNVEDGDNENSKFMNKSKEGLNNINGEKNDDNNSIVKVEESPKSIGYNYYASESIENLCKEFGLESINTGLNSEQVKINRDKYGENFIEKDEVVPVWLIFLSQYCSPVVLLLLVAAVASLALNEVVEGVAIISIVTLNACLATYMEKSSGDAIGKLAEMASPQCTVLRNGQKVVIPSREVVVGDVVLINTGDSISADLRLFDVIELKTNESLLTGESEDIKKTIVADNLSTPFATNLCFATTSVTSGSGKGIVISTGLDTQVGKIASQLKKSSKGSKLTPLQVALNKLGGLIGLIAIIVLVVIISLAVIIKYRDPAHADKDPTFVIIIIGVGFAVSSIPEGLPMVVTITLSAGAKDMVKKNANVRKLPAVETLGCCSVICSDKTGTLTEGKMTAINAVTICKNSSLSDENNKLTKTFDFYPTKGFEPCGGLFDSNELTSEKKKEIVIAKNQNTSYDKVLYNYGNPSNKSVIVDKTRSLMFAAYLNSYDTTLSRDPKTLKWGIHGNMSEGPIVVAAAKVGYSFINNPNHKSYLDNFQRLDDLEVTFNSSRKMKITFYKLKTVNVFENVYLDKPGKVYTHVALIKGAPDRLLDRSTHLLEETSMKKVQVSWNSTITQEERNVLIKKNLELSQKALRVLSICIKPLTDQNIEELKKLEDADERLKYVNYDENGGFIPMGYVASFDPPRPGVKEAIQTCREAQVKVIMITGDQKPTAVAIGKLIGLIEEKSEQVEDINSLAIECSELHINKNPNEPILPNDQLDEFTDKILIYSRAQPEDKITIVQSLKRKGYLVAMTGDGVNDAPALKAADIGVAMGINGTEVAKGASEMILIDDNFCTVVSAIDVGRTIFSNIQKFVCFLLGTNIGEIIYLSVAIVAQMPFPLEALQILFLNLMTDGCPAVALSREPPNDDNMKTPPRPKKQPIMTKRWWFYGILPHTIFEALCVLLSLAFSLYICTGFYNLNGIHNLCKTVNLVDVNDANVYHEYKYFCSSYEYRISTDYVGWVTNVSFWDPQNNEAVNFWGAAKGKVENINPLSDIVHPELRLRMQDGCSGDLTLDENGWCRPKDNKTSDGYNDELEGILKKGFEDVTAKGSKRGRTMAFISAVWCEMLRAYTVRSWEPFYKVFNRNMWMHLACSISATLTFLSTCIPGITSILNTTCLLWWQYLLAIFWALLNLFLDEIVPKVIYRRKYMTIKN

C[C@H]1Cc2c([nH]c3cc(F)c(F)cc23)[C@@]2(N1)C(=O)Nc1ccc(Cl)cc12 [NITD246]
IC50 (P. falciparum Dd2 parent): 1.6 ± 0.3 nM | remaining activity at 0.05 µM ([1]; 100 mM Na^+, n = 5, p = 0.020, read-out: ATPase activity, % of the control value): 60% | Effect on ATPase activity ([1]; low (0.5 mM) [Na^+] medium, p = 0.63): no significant change | Effect on recovery of [Na^+]i after Na^+ load ([2]; 1 nM): [Na^+]i remaining at the level reached at the point of addition of extracellular K^+ | Effect on recovery of [Na^+]i after Na^+ load ([2]; 5 nM): prolonged time-dependent increase in [Na^+]i | IC50 [3]: 0.89 ± 0.12 nM | IC50 [4]: 3.9 ± 1.7 nM | IC50 [5]: 1.7 ± 0.5 nM
